Measured values taken from US6596474B1, “Prevention and treatment of amyloid-associated disorders” (Scios Inc., priority 1999, dated 2003).
pEC50, pKi: −log10 of the molar value.

Assays:
microglia = experiment: cAMP pathway agents as co-activators with Aβ of microglia; assay type: cell-based
Description: Two of the four PGE2 isoforms, EP2 and EP4, are coupled to Gs and elevate cAMP levels upon activation. EP3 is coupled to Gi and inhibits cAMP production while EP1 increased Ca^++i. As a first step in distinguishing the receptor isoform mediating the PGE2 signal, the second messenger in the Aβ coactivation pathway was identified.

EP1 = molecular target: T1, EP1 (Homo sapiens, UniProt P34995); experiment: [3H]-PGE2 binding to EP1; details: read-out: Ki for inhibition of [3H]-PGE2 binding to EP1
T1 sequence (P34995 1-402): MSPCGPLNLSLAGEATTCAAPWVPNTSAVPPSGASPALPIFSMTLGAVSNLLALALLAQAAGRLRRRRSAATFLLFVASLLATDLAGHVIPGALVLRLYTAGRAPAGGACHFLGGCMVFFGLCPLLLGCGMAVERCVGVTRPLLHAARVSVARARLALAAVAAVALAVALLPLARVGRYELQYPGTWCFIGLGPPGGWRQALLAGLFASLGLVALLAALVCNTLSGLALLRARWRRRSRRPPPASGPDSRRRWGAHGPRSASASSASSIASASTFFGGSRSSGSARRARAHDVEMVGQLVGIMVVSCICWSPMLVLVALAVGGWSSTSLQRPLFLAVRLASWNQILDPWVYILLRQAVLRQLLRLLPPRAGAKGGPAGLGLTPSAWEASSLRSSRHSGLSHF
Description: (§2) An EP1/2 selective antagonist AH6809 (Woodward et al., 1995) was used to block the activity of EP2.

EP2 = EP2 (Homo sapiens, UniProt P43116); experiment: PGE2 stimulated cAMP accumulation functional assay; assay type: cell-based; details: read-out: EC50 for inhibition of PGE2 induced cAMP generation
EP2, sequence (P43116 whole entry): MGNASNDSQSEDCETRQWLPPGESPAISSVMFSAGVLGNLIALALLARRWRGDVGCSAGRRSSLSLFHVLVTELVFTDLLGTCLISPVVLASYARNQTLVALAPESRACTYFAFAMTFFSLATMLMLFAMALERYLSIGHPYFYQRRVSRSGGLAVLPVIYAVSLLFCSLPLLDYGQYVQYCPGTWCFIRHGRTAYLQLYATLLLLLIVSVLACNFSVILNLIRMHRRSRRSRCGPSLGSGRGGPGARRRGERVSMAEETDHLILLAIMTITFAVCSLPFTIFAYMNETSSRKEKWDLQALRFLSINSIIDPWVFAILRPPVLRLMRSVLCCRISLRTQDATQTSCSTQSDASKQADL
Description: as §2

primary glia = experiment: Aβ:PGE2 activation of primary glia in presence of EP2 antagonist; assay type: cell-based; details: even at 10-fold higher concentration than the Kd; FIG. 7
BV-2 microglia = experiment: Aβ stimulation of BV-2 cells in presence of antagonist or antisense; assay type: cell-based, murine
Description: In addition, the EP2 antagonist AH6809 had no effect on Aβ stimulation of BV-2 cells (FIG. 7). Aβ treatment of BV-2 microglia has two striking morphological effects. First, cells clumped in a manner consistent with the well documented microglial chemotactic activity to Aβ. Second, the morphology of individual cells is altered such that they change from a spherical to an elongated, process bearing shape.
Since selective EP4 antagonists were unavailable, an antisense approach is used to probe involvement of EP4 in Aβ:PGE2 activation of microglia. The antisense oligonucleotides are first tested for their ability to inhibit EP4 expression by measuring their effect on PGE2 stimulation of cAMP accumulation, an EP2/EP4 mediated event. Once the activity of the antisense oligonucleotide is confirmed, the effect of the oligonucleotide on Aβ:PGE2 activation is tested in BV-2 microglial cells.
Next, BV-2 cells are pretreated with the antisense oligonucleotides for 48 hours and then, in the continued presence of the oligonucleotide, the pretreated cells are exposed to Aβ. […] The EP4 construct decreases IL-1β by 50%, a substantial effect for this method of inhibition (FIG. 8).

EP4 = EP4 (Homo sapiens, UniProt P35408); experiment: [3H]-PGE2 binding to EP4
EP4, sequence (P35408 whole entry): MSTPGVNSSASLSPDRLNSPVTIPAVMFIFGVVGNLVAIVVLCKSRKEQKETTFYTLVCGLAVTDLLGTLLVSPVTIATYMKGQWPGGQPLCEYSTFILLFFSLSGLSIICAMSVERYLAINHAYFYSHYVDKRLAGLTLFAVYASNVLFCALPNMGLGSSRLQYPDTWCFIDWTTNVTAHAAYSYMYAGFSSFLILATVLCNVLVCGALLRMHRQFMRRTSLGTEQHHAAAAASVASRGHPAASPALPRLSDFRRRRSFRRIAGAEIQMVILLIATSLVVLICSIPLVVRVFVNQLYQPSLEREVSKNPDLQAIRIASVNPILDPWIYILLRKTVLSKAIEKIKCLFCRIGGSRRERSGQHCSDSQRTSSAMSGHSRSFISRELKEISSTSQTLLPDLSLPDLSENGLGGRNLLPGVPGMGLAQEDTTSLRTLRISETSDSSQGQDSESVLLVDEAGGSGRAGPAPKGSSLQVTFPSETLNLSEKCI
Description: as §2

[1] = test system: primary cortical mixed glial cultures; experiment: Aβ:PGE2 synergy in primary cortical mixed glial cultures, cytokine levels; assay type: cell-based, mice; details: agent alone; 100 pg/ml PGE2 or 11 hour aged Aβ; 48 hours; indomethacin pretreated
Method: (§1) As co-culture with astrocytes is known to promote the resting state for cultured microglia, mixed primary glial cultures are a particularly suitable system in which to examine PGE2:Aβ synergy. Briefly, cortices from P3 wild type mice were dissected in Ca^2+ and Mg^2+ free HBSS (Gibco). Meninges were carefully dissected away, and the tissue transferred to a dish containing HBSS supplemented with 0.53 mM EDTA and 0.05% trypsin. The tissue was incubated for 18 minutes at room temperature with occasional gentle agitation. Trypsin was removed and the tissue washed with HBSS twice prior to titration in growth medium consisting of high glucose DMEM supplemented with 10% fetal bovine serum (FBS), 110 mg/L sodium pyruvate, and 5 units/ml penicillin/streptomycin. The cell suspension was plated at 9 cortices in growth medium into one T75 and one T25 flask. The next day, nonadherent cells were removed. The culture was refed with growth medium at this time and once every 3 days following. When the culture appeared quite confluent, approximately one week, it was trypsinized and split into 48 well plates at 10^5 cells/well. Experiments were initiated in several days when cells again reached confluence.
The effect of Aβ in the presence and absence of exogenous PGE2 was investigated in these primary cortical mixed glial cultures. An Aβ peptide was resuspended at 4 mg/ml in 50% HFIP, incubated overnight at 37° C., dried in a Speed Vac, and resuspended in water at 4 mg/ml. The peptide was then “aged” at 37° C. for 11 or 24 hours and sonicated for 30 seconds on ice prior to use.
100 pg/ml of PGE2 is a low dose that is not expected to stimulate receptors for thromboxane or other prostenoids and is likely to be physiologically relevant. […] Treatments were made in duplicate. After 48 hours, media and lysates were harvested and assayed.
We confirmed the cellular source of the if biochemical signal by immunocytochemistry with an anti-mouse IL-1α monoclonal antibody (R&D Systems).

[2] = test system: mouse microglial cell line MMGT-16; experiment: Aβ:PGE2 synergy in MMGT-16 cells, cytokine secretion; assay type: cell-based; details: agent alone
Description: The protocol described above in Example 2 was then used to examine the synergy between PGE2 and Aβ in the mouse microglial cell line MMGT-16.
Synergy in MMGT-16 cells was examined by measuring secretion of both TNF-α (FIG. 5) and IL-1β (FIG. 4).

[3] = test system: BV-2 murine microglial cells; experiment: Aβ activation of BV-2 cells (IL-1α); assay type: cell-based; details: exogenous PGE2 co-incubation
Method: BV-2 murine microglial cells display many phenotypic properties of primary microglia (Blasi et al., 1990; Bocchini et al., 1992), including responsiveness to Aβ (Murphy et al., 1998). BV-2 cells are quasi-activated under basal culture conditions and secrete significant quantities of PGE2, and Aβ treatment alone induces IL-1α in BV-2 cells. […] This was believed to result from co-activation by endogenous PGE2.
The PGE2 concentration in the 24 hour conditioned media from a BV-2 cell culture was a typically 500-800 pg/ml, well above that used for Aβ:PGE2 stimulation. […] Aβ activation of BV-2 cells is highly reproducible, having been observed in 90% of experiments with a mean stimulation of 3.2 fold (n=21; p<0.05 vs. media control).

[4] = test system: primary mixed murine glial cultures; experiment: PGE2 in medium conditioned by primary mixed murine glial cultures; assay type: cell-based; details: 14 μM indomethacin during 48 hour conditioning; basal just under 200 pg/ml
Method: as §1
This is within the range in which would allow PGE2:Aβ synergy to be observed.

In the case of `Nc1ncnc2c1nc(Br)n2[C@@H]1O[C@@H]2COP(=O)(O)O[C@H]2[C@H]1O` [8-Br-cAMP], the “substitution for PGE2 as co-activator with Aβ” value (microglia) was “ability to substitute for PGE2 as a coactivator with Aβ”.
In the case of `CC(C)Oc1ccc2c(=O)c3cc(C(=O)O)ccc3oc2c1` [AH6809], the pKi (EP1) was 6.00, the pEC50 (EP2) was 6.00 and the “effect on Aβ:PGE2 activation of primary glia” value (primary glia) was “no effect”. For the same compound, the “effect on morphological responses to Aβ (clumping, elongated process bearing shape)” value (BV-2 microglia; BV-2 microglia) was “no effect on either response”, the “effect on Aβ stimulation of BV-2 cells” value (BV-2 microglia; FIG. 7) was “no effect” and the “inhibition of [3H]-PGE2 binding to EP4” value (EP4) was “lack of AH6809 inhibition”.
In the case of `CCCCC[C@H](O)/C=C/[C@H]1[C@H](O)CC(=O)[C@@H]1C/C=C\CCCC(=O)O` [PGE2, Prostaglandin E2], the “intracellular IL-1α” value [1] was “Neither PGE2 nor 11 hour aged Aβ alone had an effect”, the “secreted IL-1α” value [1] was “Neither PGE2 nor 11 hour aged Aβ alone had an effect” and the “secreted IL-6” value [1] was “Neither PGE2 nor 11 hour aged Aβ alone had an effect”. For the same compound, the TNF-α secretion [2] was “no discernable effect”, the “secretion of IL-1β” value [2] was “unaffected” and the “enhancement of Aβ-induced IL-1α elevation” value [3] was “not further enhanced”.
With `COc1ccc2c(c1)c(CC(=O)O)c(C)n2C(=O)c1ccc(Cl)cc1` [indomethacin] the PGE2 secretion [4] was “about 30 pg/ml”.
In the case of `COc1ccc(C2CNC(=O)C2)cc1OC1CCCC1` (stereo not drawn) [rolipram], the “effect on Aβ:PGE2 stimulation of microglial cytokine production” value (microglia) was “enhance”.
